Experimental data reported in ChEMBL document CHEMBL5236649 (Bioorg Med Chem, 2023).

Legend:
[1] = target: D(3) dopamine receptor (Rattus norvegicus, UniProt P19020); experiment: Displacement of [3H]-spiroperidol from rat D3 receptor expressed in HEK293 cells assessed as inhibition constant by Cheng-Prusoff equation analysis
[2] = target: D(2) dopamine receptor (Homo sapiens, UniProt P14416); experiment: biochemical
[3] = target: D(2) dopamine receptor (Rattus norvegicus, UniProt P61169); experiment: biochemical
Description: Displacement of [3H]-spiroperidol from rat D2L receptor expressed in HEK293 cells assessed as inhibition constant by Cheng-Prusoff equation analysis

Row | Compound | Ki [1] [nM] | EC50 [2] [nM] | Ki [3] [nM]
1 | CCCN(CC(=O)N1CCN(C(=O)CN(CCC)[C@H]2CCc3c(O)cccc3C2)CC1)[C@H]1CCc2c(O)cccc2C1 | 115 |  | 
2 | CCCN(CCc1cc(O)c(CCN(CCC)[C@H]2CCc3nc(N)sc3C2)cc1O)[C@H]1CCc2nc(N)sc2C1 | 6.87 | 34.4 | 
3 | CCCN(CCc1ccc(CCN(CCC)[C@H]2CCc3nc(N)sc3C2)cc1)[C@H]1CCc2c(O)cccc2C1 | 2.15 |  | 4.91
4 | CCCN(CCN1CCN(CCN(CCC)[C@H]2CCc3c(O)cccc3C2)CC1)[C@H]1CCc2c(O)cccc2C1 | 3.56 |  | 12
5 | CCCN(CCc1ccc(CCN(CCC)[C@H]2CCc3c(O)cccc3C2)cc1)[C@H]1CCc2c(O)cccc2C1 | 3.86 |  | 3.88
